The results in this text go back to patent US9328361B2, “Coryneform bacterium transformant and process for producing phenol using the same” (GREEN PHENOL DEVELOPMENT CO., LTD., priority 2010, dated 2016).

Where two headings read alike, the source gives them in different places.

For one test, the system named is Escherichia coli JM109. Conditions: aerobic culture, LB liquid medium, 37° C. The method, then: (§1) A growth inhibition test in aerobic culture was performed to examine the influence of phenol on Corynebacterium glutamicum, Escherichia coli, and Pseudomonas putida. Pseudomonas putida S12, which was used for the test, is reported to be a solvent-resistant strain. In the report, disclosed is an unparalleled technology using the strain as a host in phenol production.
Escherichia coli JM109 was applied to LB agar medium (1% polypeptone, 0.5% yeast extract, 0.5% NaCl and 1.5% agar) and was left stand in the dark at 37° C. for 15 hours.
The growth of bacterial cells was determined by absorbance measurement at OD610.
(§2) Pseudomonas putida F1 and S12 grown in the above conditions were each inoculated into 100 mL of LB (+glucose) liquid medium in such a way that the initial bacterial cell concentration would be OD610=0.05, phenol was added at the same time in such a way that the final concentration would be 0, 0.10, or […], and aerobic culture was performed with shaking at 30° C. The growth of bacterial cells was determined by absorbance measurement at OD610. […] The vertical axis of FIG. 1 indicates OD610.

Another test concerns Pseudomonas putida F1. Conditions: aerobic culture, LB (+glucose) liquid medium, 30° C. The method, then:
as §1
(§3) Pseudomonas putida F1 and S12 were applied to LB agar medium (1% polypeptone, 0.5% yeast extract, 0.5% NaCl and 1.5% agar) and were left stand in the dark at 30° C. for 15 hours.
(§4) An inoculation loop of each of Pseudomonas putida F1 and S12 was inoculated into a test tube containing 10 mL of LB (+glucose) liquid medium (1% polypeptone, 0.5% yeast extract, 0.5% NaCl and 0.4% glucose), and aerobic culture was performed with shaking at 30° C. for 13 hours.
as §2

The subject of a further test is Pseudomonas putida S12. To be noted: aerobic culture, LB (+glucose) liquid medium, 30° C. On the procedure: as §1, §3, §4, §2
In test [1] the test system is Corynebacterium glutamicum R. Conditions: aerobic culture, A liquid medium, 33° C. On the procedure: A growth inhibition test in aerobic culture was performed to examine the influence of phenol on Corynebacterium glutamicum, Escherichia coli, and Pseudomonas putida. Pseudomonas putida S12, which was used for the test, is reported to be a solvent-resistant strain. In the report, disclosed is an unparalleled technology using the strain as a host in phenol production. […]
The Corynebacterium glutamicum R grown in the above conditions was inoculated into 100 mL of A liquid media in such a way that the initial bacterial cell concentration would be OD610=0.05, phenol was added at the same time in such a way that the final concentration would be 0, 0.16, 0.2, 0.24, or […], and aerobic culture was performed with shaking at 33° C. The growth of bacterial cells was determined by absorbance measurement at OD610.
Pseudomonas putida F1 and S12 grown in the above conditions were each inoculated into 100 mL of LB (+glucose) liquid medium in such a way that the initial bacterial cell concentration would be OD610=0.05, phenol was added at the same time in such a way that the final concentration would be 0, 0.10, or […], and aerobic culture was performed with shaking at 30° C. The growth of bacterial cells was determined by absorbance measurement at OD610. […]

The subject of test [2] is Corynebacterium glutamicum R. Conditions: reducing conditions (ORP −450 mV), 8% glucose, 33° C.
Description: Corynebacterium glutamicum R was applied to A agar medium and was left stand in the dark at 33° C. for 20 hours.
An inoculation loop of the Corynebacterium glutamicum R grown on a plate as above was inoculated into a test tube containing 10 mL of A liquid medium and was aerobically cultured with shaking at 33° C. for 15 hours.
The Corynebacterium glutamicum R grown in the above conditions was inoculated into a 2 L-conical flask containing 500 mL of A liquid medium and was aerobically cultured with shaking at 33° C. for 15 hours.
The bacterial cells cultured and proliferated as above were collected by centrifugation (5,000×g at 4° C. for 15 minutes). The obtained bacterial cells were suspended in BT (-urea) liquid medium (0.7% ammonium sulfate, 0.05% potassium dihydrogen phosphate, 0.05% dipotassium hydrogen phosphate, 0.05% magnesium sulfate heptahydrate, 0.0006% iron sulfate heptahydrate, 0.00042% manganese sulfate hydrate, 0.00002% biotin and 0.00002% thiamine hydrochloride) so that the concentration of the bacterial cell was 10% (w/v). […] During the reaction, 2.5 N aqueous ammonia was added with the use of a pH controller (Type: DT-1023 made by Able) to avoid the pH of the reaction mixture falling below 7.0.

Regarding `Oc1ccccc1` [phenol], the entries for the “proliferation of Escherichia coli” value in the test on Escherichia coli JM109 (0.16% phenol) and in the test on Escherichia coli JM109 (0.20% phenol) were “significantly affected” and “completely inhibited”, respectively. For the same molecule, the “proliferation of Pseudomonas putida F1” value in the test on Pseudomonas putida F1 (0.10% phenol) is listed as “significantly affected”; with Pseudomonas putida F1 (0.20% phenol), “completely inhibited”. Moreover, the “proliferation of Pseudomonas putida S12” value in the test with Pseudomonas putida S12 (0.10% phenol) is “significantly affected”; in the test on Pseudomonas putida S12 (0.20% phenol), “completely inhibited”. In addition, the “proliferation of Corynebacterium glutamicum” value in test [1] (0.16% phenol) is recorded as “hardly affected”; in test [1] (0.20% phenol) it was “favorable growth”. Moreover, the “influence on saccharide consumption” value in test [2] (0.24% phenol) is on record as “no influence of phenol was observed”. Also, the saccharide consumption entry in test [2] (0.38% phenol) was “saccharide consumption was observed”; in test [2] (0.46% phenol), “slightly observed”.
